Patent US7063842B2, “Compounds and methods for inhibiting the interaction between α-catenin and β-catenin” (McGill University, priority 1997, dated 2006)
Positions of bridges follow the written chain, without caps; N, C: chain ends.

What was measured:
[1] = test system: α-catenin/β-catenin interactions; test: Immunoprecipitation from adult mouse brain extracts, Western blot probed with anti-α-catenin / anti-β-catenin antibodies; format: binding; conditions: adult mouse brain homogenate incubated 3 hours at 4° C. with peptide at 1 mg/ml
Procedure: As noted above, modulating agents are capable of disrupting an interaction between α-catenin and β-catenin. This ability may generally be evaluated using any suitable assay known to those of ordinary skill in the art. For example, an immunoprecipitation as described herein may be employed. Within such an assay, disruption of the interaction is measured by assessing the ability of an antibody directed against β-catenin to immunoprecipitate α-catenin in the presence and absence of the modulating agent. For example, tissue such as brain may be homogenized in the presence and absence of modulating agent. The ability of an antibody directed against β-catenin to immunoprecipitate α-catenin from the homogenate is then assessed by probing a Western blot of proteins immunoprecipitated from the tissue homogenate by anti-β-catenin antibody with an anti-α-catenin antibody. […]
These peptides, as well as two control peptides (H-CKHGWNC-OH, SEQ ID NO:6, and H-CKHGWNC-OH, SEQ ID NO:51) were analyzed for their ability to disrupt α-catenin/β-catenin interactions, as judged by standard immunoprecipitation methods. […] Finally, the membrane was washed 3 times with TTBS, and the immunoreactive proteins were detected using an enhanced chemiluminescence kit (ECL; Amersham Life Sciences Inc., Oakville, Ontario) and autoradiographic film (Fuji, Minami-Ashigara, Japan). […]

[2] = test system: Normal human breast A1N4 cells; test: Disruption of cell adhesion: microinjection of peptide/DAPI mixture into cells, morphology noted at hourly intervals; format: cell-based; conditions: 0.2 pL peptide/DAPI mixture injected, final intracellular concentration of peptide 0.5 mg/ml, after 4 hours
Procedure: Three peptides (N-Ac-CKHAVVNC-NH2, N-Ac-CKHGWNC-NH2, and H-KHAVVN-OH; SEQ ID NOS: 5, 51 and 8 respectively) were tested for their ability to disrupt cell adhesion. Normal human breast A1N4 cells were grown on gridded glass coverslips to approximately 30% confluence. Peptides were dissolved in distilled water at a concentration of […]. Each of the three peptide solutions was mixed 1:1 with a solution containing the fluorescent marker DAPI (Molecular Probes Inc., Eugene, Oreg.) dissolved in water at a concentration of 40 μg/ml. All of the mixtures were centrifuged at 10,000×g for 5 minutes immediately before use in the experiments. An aliquot ([…]) of each peptide/DAPI mixture was taken up in an Eppendorff microinjection pipette. Microinjection was performed using an Eppendorf microinjector and micromanipulator coupled to an IM35 inverted Zeiss microscope with phase contrast and Hoffman optics. Cells to be injected were located and their position on the grid noted. For microinjection, the pipette was brought close to the cell layer and the micromanipulator programmed to return to the same plane. Cells were injected with 0.2 pL of peptide/DAPI mixture. This corresponds to approximately 1/100 of the cell volume and results in a final intracellular concentration of peptide of 0.5 mg/ml. […] After 4 hours, a difference in the morphology of the cells injected with the various peptides was observed.

Substance	ability to disrupt α-catenin/β-catenin interactions, as judged by immunoprecipitation [1]	morphology of the injected cells [2]
H-CKHAVVNC-OH (cysteine pairing not given here) [H-CKHAVVNC-OH (SEQ ID NO:4)]	capable of disrupting the interaction between α-catenin and β-catenin	
H-KHAVVN-OH [H-KHAVVN-OH (SEQ ID NO:8)]		had become rounded, and they were detached from their neighbors
H-Cys-Lys-His-Ala-Val-Val-Asn-Cys-OH (H-CKHAVVNC-OH; cysteine pairing not given here) [H-CKHAVVNC-OH (SEQ ID NO:5)]	capable of disrupting the interaction between α-catenin and β-catenin	
Ac-CKHGWNC-NH2 (cysteine pairing not given here) [N-Ac-CKHGWNC-NH2 (SEQ ID NO:51), reference compound]		indistinguishable from surrounding uninjected cells
N-Ac-CKHAVVNC-NH2 (disulfide 1-8 (inferred)) [N-Ac-CKHAVVNC-NH2 (SEQ ID NO:5)]		indistinguishable from surrounding uninjected cells
